Our source for the AUC, IC50 and Selectivity ratio values is patent publication US20250057912A1, “Compounds” (priority 2021, published 2025).

The nature of data set [1]: Pharmacokinetic characterisation in Beagle dogs, single s.c. injection, dose range (Example 6). It counts as in vivo. To be noted: male, plasma, dog, SC. The source says: The dosing vehicle was PBS buffer, pH 7.
Data set [2] has as its target T1, α4β7 RPMI8866/MAdCAM-1 adhesion (Homo sapiens, UniProt P13612+P26010).
T1 construct: CFSE-labelled RPMI 8866 cells were added to the plate coated with rhMAdCAM-1; host or cells: RPMI 8866
T1 sequence (P13612 34-1032): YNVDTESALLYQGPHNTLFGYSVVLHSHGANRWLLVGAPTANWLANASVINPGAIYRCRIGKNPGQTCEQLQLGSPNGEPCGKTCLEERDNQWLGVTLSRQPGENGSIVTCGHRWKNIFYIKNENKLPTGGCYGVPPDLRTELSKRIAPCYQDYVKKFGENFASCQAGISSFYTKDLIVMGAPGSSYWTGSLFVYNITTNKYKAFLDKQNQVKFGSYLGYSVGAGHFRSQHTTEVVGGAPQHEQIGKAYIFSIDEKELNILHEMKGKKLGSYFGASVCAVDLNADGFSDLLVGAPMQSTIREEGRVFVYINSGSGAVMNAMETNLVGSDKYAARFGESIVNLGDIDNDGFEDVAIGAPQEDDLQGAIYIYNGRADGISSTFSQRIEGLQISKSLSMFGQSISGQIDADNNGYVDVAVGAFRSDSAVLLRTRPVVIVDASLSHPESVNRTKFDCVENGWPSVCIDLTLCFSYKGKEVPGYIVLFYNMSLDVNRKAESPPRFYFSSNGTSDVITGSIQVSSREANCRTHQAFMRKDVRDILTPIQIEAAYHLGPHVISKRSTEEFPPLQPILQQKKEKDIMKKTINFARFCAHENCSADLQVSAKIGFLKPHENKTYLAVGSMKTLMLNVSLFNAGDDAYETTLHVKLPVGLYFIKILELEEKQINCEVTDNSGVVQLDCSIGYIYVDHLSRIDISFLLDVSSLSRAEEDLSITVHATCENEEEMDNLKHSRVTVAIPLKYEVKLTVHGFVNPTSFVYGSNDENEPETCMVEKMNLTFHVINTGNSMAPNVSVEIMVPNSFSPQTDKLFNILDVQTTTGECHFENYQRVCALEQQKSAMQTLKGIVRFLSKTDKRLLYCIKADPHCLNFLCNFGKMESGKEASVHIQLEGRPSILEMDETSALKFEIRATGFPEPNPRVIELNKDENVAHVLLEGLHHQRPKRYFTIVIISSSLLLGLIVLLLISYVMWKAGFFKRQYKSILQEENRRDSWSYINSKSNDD
T1 sequence (P26010 20-798): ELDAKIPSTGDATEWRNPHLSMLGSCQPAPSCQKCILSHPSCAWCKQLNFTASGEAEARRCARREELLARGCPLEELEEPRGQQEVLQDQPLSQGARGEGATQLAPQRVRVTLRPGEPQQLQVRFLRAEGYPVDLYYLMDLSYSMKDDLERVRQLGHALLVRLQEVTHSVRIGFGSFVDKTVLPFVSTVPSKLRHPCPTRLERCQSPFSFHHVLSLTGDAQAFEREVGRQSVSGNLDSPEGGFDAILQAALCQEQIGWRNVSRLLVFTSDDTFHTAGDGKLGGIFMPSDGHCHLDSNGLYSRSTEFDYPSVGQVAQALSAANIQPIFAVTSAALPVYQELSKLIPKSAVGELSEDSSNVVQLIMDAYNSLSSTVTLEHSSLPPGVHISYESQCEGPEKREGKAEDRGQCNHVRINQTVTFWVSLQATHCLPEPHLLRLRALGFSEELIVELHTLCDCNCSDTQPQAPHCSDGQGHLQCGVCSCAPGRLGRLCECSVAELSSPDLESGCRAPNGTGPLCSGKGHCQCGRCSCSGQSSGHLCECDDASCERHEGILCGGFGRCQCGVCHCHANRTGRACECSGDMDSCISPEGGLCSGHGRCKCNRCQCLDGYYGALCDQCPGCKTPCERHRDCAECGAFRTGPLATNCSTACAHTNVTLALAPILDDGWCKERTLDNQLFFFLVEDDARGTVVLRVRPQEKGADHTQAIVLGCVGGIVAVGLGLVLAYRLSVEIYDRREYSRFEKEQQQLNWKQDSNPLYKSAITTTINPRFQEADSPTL
Kind of data set: Integrin α4β7-MAdCAM cell adhesion assay, RPMI8866 cells (Example 7). It counts as cell-based.
Text: The cells were pelleted by centrifugation and resuspended in fresh pre-warmed complete culture medium and the cells were counted. […]

The target of data set [3] is T2, α4β1 RAMOS/VCAM-1 adhesion (Homo sapiens, UniProt P05556+P13612).
T2 construct: host or cells: RAMOS
The experiment in a line: Integrin α4β1-VCAM-1 cell adhesion assay, RAMOS cells (Example 7). It counts as cell-based. As to conditions: rhVCAM-1 coated plate, DMEM binding buffer. The procedure: The human B lymphocyte cell line RAMOS was obtained from the Zealand Pharma culture collection.
Compound 1 and Comparative compounds 1 and 2 were reconstituted in DMSO to a concentration of 10 mM.
CFSE-labelled RPMI 8866 cells were added to the plate coated with rhMAdCAM-1 and CFSE-labelled RAMOS cells were added to the plate coated with rhVCAM-1.
After incubation, unbound cells were washed away. The cell plates were emptied by inverting and residues of liquid were removed by blotting on paper towel.

T2 sequence (P05556 21-798, one chain of several): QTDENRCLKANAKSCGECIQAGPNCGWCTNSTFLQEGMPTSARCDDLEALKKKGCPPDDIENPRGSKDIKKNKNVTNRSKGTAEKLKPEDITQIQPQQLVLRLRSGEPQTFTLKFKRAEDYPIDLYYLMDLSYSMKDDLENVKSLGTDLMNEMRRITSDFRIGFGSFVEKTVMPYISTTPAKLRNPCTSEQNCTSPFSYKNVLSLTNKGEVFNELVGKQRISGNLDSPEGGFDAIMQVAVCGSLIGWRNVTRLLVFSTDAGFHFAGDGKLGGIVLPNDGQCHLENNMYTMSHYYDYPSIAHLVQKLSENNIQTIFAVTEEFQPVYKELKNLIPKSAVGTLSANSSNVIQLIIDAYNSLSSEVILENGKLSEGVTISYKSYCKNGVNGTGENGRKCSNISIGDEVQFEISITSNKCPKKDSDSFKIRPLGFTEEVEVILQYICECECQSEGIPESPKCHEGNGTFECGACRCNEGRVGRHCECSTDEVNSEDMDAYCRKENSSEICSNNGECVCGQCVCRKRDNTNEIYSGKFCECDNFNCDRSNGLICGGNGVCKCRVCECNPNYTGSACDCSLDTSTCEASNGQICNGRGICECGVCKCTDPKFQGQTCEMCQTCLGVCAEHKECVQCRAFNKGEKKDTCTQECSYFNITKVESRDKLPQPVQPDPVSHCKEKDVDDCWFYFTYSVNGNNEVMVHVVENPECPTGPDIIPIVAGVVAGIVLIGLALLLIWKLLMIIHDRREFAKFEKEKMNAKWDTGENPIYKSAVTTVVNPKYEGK

Consider `CC[C@H](C)[C@@H]1NC(=O)[C@H](CC(=O)O)NC(=O)[C@H](CC(C)C)NC(=O)c2ccc(-c3ccc(N4CCN(C(=O)c5ccccc5-c5ccccc5C(=O)N5CCN(c6ccc(-c7ccc8cc7CNC(=O)[C@@H]7CCCN7[C@H](C(=O)NC(C)(C)C)[C@H](C)NC(=O)[C@H]([C@@H](C)CC)NC(=O)[C@H](CC(=O)O)NC(=O)[C@H](CC(C)C)NC8=O)cc6)CC5)CC4)cc3)c(c2)CNC(=O)[C@@H]2CCCN2[C@H](C(=O)NC(C)(C)C)[C@H](C)NC1=O` [Compound 1], for which the AUC – broadly, concentration integrated over time – in data set [1] (10 ug/kg) was found to be 2.46 µM·h; in data set [1] (20 ug/kg), 5.68 µM·h; in data set [1] (50 ug/kg), 11.6 µM·h; in data set [1] (100 ug/kg) it was 58.6 µM·h; in data set [1] (200 ug/kg) it was 72.5 µM·h; in data set [1] (400 ug/kg), 158 µM·h. For the same molecule, the IC50 (usually the midpoint of a concentration-inhibition curve) in data set [2] (RPMI 8866 cells, rhMAdCAM-1 coated plate, DMEM binding buffer) came out at 7.2 nM; in data set [3], 115 nM. In data set [2] (α4β1 RAMOS/VCAM-1 IC50 versus α4β7 RPMI8866/MAdCAM-1 IC50), the Selectivity ratio is listed as 16.0.
